Experimental data published in patent publication US4137225A, “Novel chromogenic enzyme substrates” (Ab Kabi, priority 1975, dated 1979).
≈ marks a conversion by molar mass, not a printed value. Counter-ions that a name gives are not always drawn. Where a SMILES comes first, the peptide text is derived from it. [ ]: non-standard residue; d: D form. The star is where a group is joined. pNA = O=[N+]([O-])c1ccc(N*)cc1; Pip = O=C(O)[C@@H]1CCCCN1; Bz = O=C(c1ccccc1)*

Key:
[1] = molecular target: Plasmin (Homo sapiens, UniProt P00747); test: Relative reaction rate of enzymatic hydrolysis of chromogenic substrates, plasmin (p-nitroaniline release at 405 nm); format: biochemical; conditions: for Rel Reaction rates, Pl (Plasmin): relative to reference substrate XVIII
Chain of Plasmin (P00747 97-810): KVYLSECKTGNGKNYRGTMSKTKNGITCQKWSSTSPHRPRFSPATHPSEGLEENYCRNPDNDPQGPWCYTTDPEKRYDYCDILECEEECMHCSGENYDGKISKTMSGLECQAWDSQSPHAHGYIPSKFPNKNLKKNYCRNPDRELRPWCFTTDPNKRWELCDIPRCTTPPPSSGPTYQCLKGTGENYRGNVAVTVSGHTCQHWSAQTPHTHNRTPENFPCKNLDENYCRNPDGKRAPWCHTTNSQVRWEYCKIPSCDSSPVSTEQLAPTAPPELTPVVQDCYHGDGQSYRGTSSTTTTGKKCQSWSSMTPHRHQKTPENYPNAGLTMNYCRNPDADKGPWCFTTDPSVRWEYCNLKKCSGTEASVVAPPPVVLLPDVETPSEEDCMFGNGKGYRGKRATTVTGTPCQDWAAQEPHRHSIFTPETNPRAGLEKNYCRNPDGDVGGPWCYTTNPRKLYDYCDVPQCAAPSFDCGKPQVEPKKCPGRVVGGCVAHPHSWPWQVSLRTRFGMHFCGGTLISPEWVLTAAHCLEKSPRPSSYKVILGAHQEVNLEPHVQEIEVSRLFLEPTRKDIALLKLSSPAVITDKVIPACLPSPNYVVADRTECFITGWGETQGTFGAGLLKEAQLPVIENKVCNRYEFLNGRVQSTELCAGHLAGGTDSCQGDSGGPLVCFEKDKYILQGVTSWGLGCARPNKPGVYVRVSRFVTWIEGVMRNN
Source text: (§1) The substrates prepared according to the examples above are used for determination of different enzymes according to the procedure outlined above.
(§2) The principle for the determination is based on the fact that the splitting product formed by enzymatic hydrolysis has a UV-spectrum which is essentially different from that of the substrate. Thus, e.g. all p-nitro anilide substrates according to the invention have absorption maxima around 310 nm with the molar extinction coefficient of about 12000. At 405 nm the absorption of these substrates has almost completely discontinued. p-Nitroaniline which has been split off from the substrate during the enzymatic hydrolysis has an absorption maximum at 380 nm and a molar extinction coefficient of 13200, which at 405 nm only has decreased to 9620. By spectrophotometric determination at 405 nm it is thus easy to follow the amount of p-nitroaniline formed which is proportional to the degree of the enzymatic hydrolysis which in its turn is determined by the active amount of enzyme.
(§3) In the table above the relative reaction rates for the different substrates are stated in relation to a reference substrate chosen for each enzyme. Symbols, reference substrates and their sensitivity for the respective enzymes are according to the following: […]

[2] = test system: Thrombin; test: Relative reaction rate of enzymatic hydrolysis of chromogenic substrates, thrombin (p-nitroaniline release at 405 nm); format: biochemical; conditions: for Rel Reaction rates, T (Thrombin): relative to reference substrate XIV
Source text: as §1, §2, §3

[3] = test system: Trypsin; test: Relative reaction rate of enzymatic hydrolysis of chromogenic substrates, trypsin (p-nitroaniline release at 405 nm); format: biochemical; conditions: for Rel Reaction rates, Try (Trypsin): relative to reference substrate XIII
Source text: as §1, §2, §3

[4] = molecular target: Urokinase (Homo sapiens, UniProt P00749); test: Relative reaction rate of enzymatic hydrolysis of chromogenic substrates, urokinase (p-nitroaniline release at 405 nm); format: biochemical; conditions: for Rel Reaction rates, UK (Urokinase): relative to reference substrate XIV
Source text: as §1, §2, §3

[5] = Solubility in buffer; format: physicochemical; conditions: aqueous buffer; Buffer = Tris, pH 8.2, I 0.15
Source text: | ^x Buffer = Tris, pH 8.2, I 0.15

[6] = test system: Kallikrein; test: Relative reaction rate of enzymatic hydrolysis of chromogenic substrates, kallikrein (p-nitroaniline release at 405 nm); format: biochemical; conditions: for Rel Reaction rates, Kal (Kallikrein): relative to reference substrate XVI
Source text: as §1, §2, §3

CC(C)C[C@H](NC(=O)[C@@H](N)C(C)C)C(=O)N[C@@H](CCCCN)C(=O)Nc1ccc([N+](=O)[O-])cc1 [H-Val-Leu-Lys-pNA] (H-Val-Leu-Lys-pNA)
Rel Reaction rates, Pl (Plasmin) [1]: 25

CC(C)[C@H](N)C(=O)N1CCCC[C@H]1C(=O)N[C@@H](CCCNC(=N)N)C(=O)Nc1ccc([N+](=O)[O-])cc1 [H-Val-Pip-Arg-pNA] (H-Val-[Pip]-Arg-pNA)
Rel Reaction rates, T (Thrombin) [2]: 4
Rel Reaction rates, Try (Trypsin) [3]: 35
Rel Reaction rates, UK (Urokinase) [4]: 45

CC(C)[C@H](NC(=O)c1ccccc1)C(=O)N1CCC[C@H]1C(=O)N[C@@H](CCCNC(=N)N)C(=O)Nc1ccc([N+](=O)[O-])cc1 [Bz-Val-Pro-Arg-pNA] (Bz-Val-Pro-Arg-pNA)
Rel Reaction rates, T (Thrombin) [2]: 6
Rel Reaction rates, Try (Trypsin) [3]: 60
Rel Reaction rates, UK (Urokinase) [4]: 15
solubility [5]: 300 µg/mL (≈ 504 µM)

CC[C@H](C)[C@H](N)C(=O)N[C@@H](CC(C)C)C(=O)N[C@@H](CCCCN)C(=O)Nc1ccc([N+](=O)[O-])cc1 [H-Ile-Leu-Lys-pNA] (H-Ile-Leu-Lys-pNA)
Rel Reaction rates, Pl (Plasmin) [1]: 35

CC(C)[C@@H](N)C(=O)N1CCC[C@H]1C(=O)N[C@@H](CCCNC(=N)N)C(=O)Nc1ccc([N+](=O)[O-])cc1 [XIII, H-D-Val-Pro-Arg-pNA . 2 HCl] (H-[dV]-Pro-Arg-pNA)
Rel Reaction rates, T (Thrombin) [2]: 80
Sensitivity (stated amount of enzyme gives the activity 0.1 nkat) ([3]; Trypsin, 0.1 nkat, ΔOD/min = 0.0254): 0.03 µg (Novo)
Rel Reaction rates, Try (Trypsin) [3]: 100
Rel Reaction rates, UK (Urokinase) [4]: 95
solubility [5]: 100000 µg/mL

CC[C@@H](C)[C@@H](N)C(=O)N[C@@H](CC(C)C)C(=O)N[C@@H](CCCCN)C(=O)Nc1ccc([N+](=O)[O-])cc1 [XVII, H-D-Ile-Leu-Lys-pNA . 2 HCl] (H-[dI]-Leu-Lys-pNA)
Rel Reaction rates, Pl (Plasmin) [1]: 100
solubility [5]: 20000 µg/mL

CC(C)C[C@H](NC(=O)[C@H](N)C(C)C)C(=O)N[C@@H](CCCCN)C(=O)Nc1ccc([N+](=O)[O-])cc1 [XVIII, H-D-Val-Leu-Lys-pNA . 2 HCl] (H-[dV]-Leu-Lys-pNA)
Sensitivity (stated amount of enzyme gives the activity 0.1 nkat) ([1]; Plasmin, 0.1 nkat, ΔOD/min = 0.0254): 0.01 CU
Rel Reaction rates, Pl (Plasmin) [1]: 100
solubility [5]: > 100000 µg/mL

CC[C@@H](C)[C@@H](N)C(=O)N[C@@H](CC(C)C)C(=O)N[C@@H](CCCNC(=N)N)C(=O)Nc1ccc([N+](=O)[O-])cc1 [XV, H-D-Ile-Leu-Arg-pNA . 2 HCl] (H-[dI]-Leu-Arg-pNA)
Rel Reaction rates, Pl (Plasmin) [1]: 75
Rel Reaction rates, Kal (Kallikrein) [6]: 100
solubility [5]: 4000 µg/mL

CC(C)[C@H](NC(=O)c1ccccc1)C(=O)N1CCCC[C@H]1C(=O)N[C@@H](CCCNC(=N)N)C(=O)Nc1ccc([N+](=O)[O-])cc1 [Bz-Val-Pip-Arg-pNA] (Bz-Val-[Pip]-Arg-pNA)
Rel Reaction rates, T (Thrombin) [2]: 4
Rel Reaction rates, Try (Trypsin) [3]: 45
Rel Reaction rates, UK (Urokinase) [4]: 30

CC(C)C[C@H](NC(=O)[C@@H](NC(=O)c1ccccc1)C(C)C)C(=O)N[C@@H](CCCNC(=N)N)C(=O)Nc1ccc([N+](=O)[O-])cc1 [Bz-Val-Leu-Arg-pNA] (Bz-Val-Leu-Arg-pNA)
Rel Reaction rates, Kal (Kallikrein) [6]: 100
solubility [5]: 200 µg/mL (≈ 327 µM)

CC(C)[C@H](N)C(=O)N1CCC[C@H]1C(=O)N[C@@H](CCCNC(=N)N)C(=O)Nc1ccc([N+](=O)[O-])cc1 [H-Val-Pro-Arg-pNA] (H-Val-Pro-Arg-pNA)
Rel Reaction rates, T (Thrombin) [2]: 6
Rel Reaction rates, Try (Trypsin) [3]: 55
Rel Reaction rates, UK (Urokinase) [4]: 15
solubility [5]: 40000 µg/mL (≈ 81500 µM)

CC(C)C[C@H](NC(=O)[C@@H](NC(=O)c1ccccc1)C(C)C)C(=O)N[C@@H](CCCCN)C(=O)Nc1ccc([N+](=O)[O-])cc1 [Bz-Val-Leu-Lys-pNA] (Bz-Val-Leu-Lys-pNA)
Rel Reaction rates, Pl (Plasmin) [1]: 100
solubility [5]: 500 µg/mL (≈ 858 µM)

CC[C@H](C)[C@H](NC(=O)c1ccccc1)C(=O)N[C@@H](CC(C)C)C(=O)N[C@@H](CCCCN)C(=O)Nc1ccc([N+](=O)[O-])cc1 [Bz-Ile-Leu-Lys-pNA] (Bz-Ile-Leu-Lys-pNA)
Rel Reaction rates, Pl (Plasmin) [1]: 130
solubility [5]: 1000 µg/mL (≈ 1680 µM)

CC[C@H](C)[C@H](NC(=O)c1ccccc1)C(=O)N[C@@H](CC(C)C)C(=O)N[C@@H](CCCNC(=N)N)C(=O)Nc1ccc([N+](=O)[O-])cc1 [Bz-Ile-Leu-Arg-pNA] (Bz-Ile-Leu-Arg-pNA)
Rel Reaction rates, Pl (Plasmin) [1]: 55
Rel Reaction rates, Kal (Kallikrein) [6]: 100
solubility [5]: 200 µg/mL (≈ 320 µM)

CC(C)C[C@H](NC(=O)[C@@H](N)C(C)C)C(=O)N[C@@H](CCCNC(=N)N)C(=O)Nc1ccc([N+](=O)[O-])cc1 [H-Val-Leu-Arg-pNA] (H-Val-Leu-Arg-pNA)
Rel Reaction rates, Kal (Kallikrein) [6]: 50

CC(C)[C@@H](N)C(=O)N1CCCC[C@H]1C(=O)N[C@@H](CCCNC(=N)N)C(=O)Nc1ccc([N+](=O)[O-])cc1 [XIV, H-D-Val-Pip-Arg-pNA . 2 HCl] (H-[dV]-[Pip]-Arg-pNA)
Sensitivity (stated amount of enzyme gives the activity 0.1 nkat) ([2]; Thrombin, 0.1 nkat, ΔOD/min = 0.0254): 0.06 INH
Rel Reaction rates, T (Thrombin) [2]: 100
Rel Reaction rates, Try (Trypsin) [3]: 70
Sensitivity (stated amount of enzyme gives the activity 0.1 nkat) ([4]; Urokinase, 0.1 nkat, ΔOD/min = 0.0254): 40 Ploug E
Rel Reaction rates, UK (Urokinase) [4]: 100

CC[C@H](C)[C@H](N)C(=O)N[C@@H](CC(C)C)C(=O)N[C@@H](CCCNC(=N)N)C(=O)Nc1ccc([N+](=O)[O-])cc1 [H-Ile-Leu-Arg-pNA] (H-Ile-Leu-Arg-pNA)
Rel Reaction rates, Pl (Plasmin) [1]: 10
Rel Reaction rates, Kal (Kallikrein) [6]: 20

CC(C)C[C@H](NC(=O)[C@H](N)C(C)C)C(=O)N[C@@H](CCCNC(=N)N)C(=O)Nc1ccc([N+](=O)[O-])cc1 [XVI, H-D-Val-Leu-ARg-pNA . 2 HCl] (H-[dV]-Leu-Arg-pNA)
Sensitivity (stated amount of enzyme gives the activity 0.1 nkat) ([6]; Kallikrein, 0.1 nkat, ΔOD/min = 0.0254): 0.2 Be
Rel Reaction rates, Kal (Kallikrein) [6]: 100
solubility [5]: 600000 µg/mL
